Measured values published in patent publication US6265423A, “Aromatic polycyclic retinoid-type derivatives, method for preparing same, and use thereof for making pharmaceutical and cosmetic compositions” (priority 1996, dated 2001).
Read-outs that look alike come from different tables or passages of the source.

Key:
T-47D cells = experiment: Effect on oestrogen-induced proliferation of T-47D cells; type: cell-based, human; conditions: for activity at 1 µM: 10^-6 M, 100% = E2 10^-9 M, read-out: growth of T-47D cells
[1] = test system: ZR-75-1 human mammary cancer cells; experiment: MTT test, proliferation of ZR-75-1; type: cell-based; conditions: for activity at 100 µM / activity at 1 µM / activity at 0.01 µM: Homo sapiens, read-out: level of proliferation; for effect on cellular increase, ZR-75-1 (in words): MTT test
Outline: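 Cells grown at 37° C in MEM/5% FCS were plated for 24 h, then treated at 10^-8, 10^-6 or 10^-4 M. Each condition was run in 6 duplicates.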

[2] = test system: response element RARE of RARβ gene, endogenic retinoic receptors, HRLN lineage; experiment: HRLN transactivation (RARE-luciferase, stably transfected HeLa); type: cell-based; conditions: for EC50 / Emax: Homo sapiens, HeLa; for EC50: concentrations from 1 nM to 1 μM; for Emax: read-out: HRLN transactivation, E max
Description: MCF-7 cells and HeLa are cultivated in DMFM with phenol red to which 5% foetal calf serum is added. The T47-D cells are cultivated in RPMI to which 10% foetal calf serum is added. The experimental tests are carried out in DMEM without phenol red to which foetal calf serum treated with dextran carbon is added at 3%. […] The experiments using the different retinoids are carried out sheltered from the light so as to avoid any isomerisation.
Certain properties of the retinoids have been determined using more developed cellular models. These models consist of cellular lineages transfected in a stable fashion by recombinant plasmids which place the expression of the gene of the luciferase under the control of different nuclear response elements. […] The tests carried out in duplicate are described below for each of these models.
The cellular lineages HRLN and HRL+N allow one to study the activation of an RARE by endogenic receptors using ligands at physiological concentrations. These lineages derive from HeLa cells transfected in a stable fashion by a reporter gene which places the expression of the gene of the luciferase under the control of a nuclear response element RARE (RARE3 -tk-Luc). The HeLa cells express all the known receptors of the retinoic acid (RARα,β,γ and RXRα,β,γ) with a predominance of RARα and RXRα. The response element RARE used for the HRLN cells corresponds to the sequence of the natural gene of the RARβ receptor (GGTTCAnnnnnAGTTCA). The HRL+N cells comprise the sequence GAGTGAnnnnnCGGTGA.
This lineage comprises the response element RARE of the natural gene of the RARβ receptor which controls the expression of the gene of the luciferase.

RARβ-ERcassette = experiment: Transactivation, chimerical receptor RARβ-ERcassette (HeLa); type: cell-based; conditions: TTNPB 10^-8 M = 100
Outline: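 Read-out: ERE-driven luciferase in HeLa cells, normalised to a co-transfected CMV-β-galactosidase control. Receptor is RAR with its C domain swapped for the oestrogen receptor DNA-binding domain, keeping AF-1/AF-2 cooperation. Effector exposure 16 h, beginning 24 h post-transfection.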

RAR and RXR receptors = experiment: RAR/RXR activity profile drawn from the models; type: cell-based
Excerpt: The reference molecules have allowed one to show the effectiveness and the complementary nature of the different models used and lead to the following conclusions: chimerical constructions GAL-RAR and RAR-ERcassette allow the determination of the RAR agonist profile of molecules, but also an RXR agonist activity with RAR-ERcassette, the HRLN lineage mainly conveys the activity of a compound mediated by endogenic RARα, the HRL+N lineage also provides evidence of an RXR agonist activity of the retinoids, the anti-oestrogenic effect of the retinoids (oestrogen-induced cellular proliferation and MELN lineage) is mediated by RARα, the anti-AP-1 effect is mediated in the MCF-7 cells (MTLN lineage) by RARα, RARγ and RXRα, and an additive effect exists between the RAR and RXR routes.

Gal4-RARγ = experiment: Transactivation, chimerical receptor Gal4-RARγ (transitory transfection of HeLa); type: cell-based; conditions: 100% = TTNPB 10^-8 M
[3] = ZR-75-1, 10^-4 M, 72 h, control = 100%
[4] = ZR-75-1, 10^-6 M, 72 h, control = 100%
[5] = ZR-75-1, 10^-8 M, 72 h, control = 100%
[6] = Homo sapiens, T47D, 168 h, 7 days

SMILES	activity at 100 µM [1, 3] [%]	activity at 1 µM [1, 4] [%]	activity at 0.01 µM [1, 5] [%]	effect on cellular increase, ZR-75-1 (in words) [1]	HRLN transactivation (in words) [2]	RAR-ERcassette RARβ transactivation (RARβ-ERcassette; 10^-6 M) [%]	RAR-ERcassette RARβ transactivation (RARβ-ERcassette; 10^-7 M) [%]	RAR-ERcassette RARβ transactivation (RARβ-ERcassette; 10^-8 M) [%]	Emax [2] [%]	RAR/RXR activity profile (in words) (RAR and RXR receptors)	activity at 1 µM (T-47D cells; [6]) [%]	GAL4-RAR RARγ transactivation (Gal4-RARγ; 10^-6 M) [%]	other results
CC(C=C/C=C(C)\C=C\C1=C(C)CCCC1(C)C)=CC(=O)O [CB13407, 9-cis retinoic acid, reference compound]	39.2	130	137	stimulates the cellular increase at 10^-6 M and 10^-8 M	induce a dose-dependent activation	369	212	94					IC50 (T-47D cells; Homo sapiens, T47D, 168 h, read-out: anti-proliferation effect, T-47D IC50): 25.1 ± 1.4 nM; RAR-ERcassette RARβ transactivation (RARβ-ERcassette; 10^-9 M): 16%
C/C(=C\c1ccc2c(c1)C(C)(C)CCC2(C)C)c1ccc(C(=O)Nc2nnn[nH]2)cc1 [CB73364]	0	101	119			118			89				effect on oestrogen-induced growth, T-47D (in words) (T-47D cells; estradiol 10^-9 M): exerts an effect comparable to TTNPB; EC50 [2]: 33 nM
C/C(=C/c1ccc2c(c1)C(C)(C)CCC2(C)C)c1ccc(C(=O)O)nc1 [CB16279, (Z) 5-[1-(5,6,7,8-tetrahydro-5,5,8,8-tetramethyl-2-naphthalenyl)-2-propenyl]pyridinyl-2-carboxylic acid]					induce a transactivation close to that of TTNPB	118	60			panagonistic	84	59	
C/C(=C\c1ccc(C(=O)O)cc1)c1ccc2c(c1)C(C)(C)CCC2(C)C [TTNPB, reference compound]	15.7	69.8	60.6	inhibit the cellular increase of the two mammary lineages at the concentrations tested									effect on oestrogen-induced growth, T-47D (in words) (T-47D cells; estradiol 10^-9 M): stronger inhibiting effect than the natural ligands (all-trans RA and 9-cis RA) and than LGD1069
C/C(=C/c1ccc2c(c1)C(C)(C)CCC2(C)C)c1ccc(C(=O)O)cc1 [CB28628, reference compound]	19.4	83.5	80.8			183	115	88	98		33		inhibition of growth (of the order of) (T-47D cells; estradiol 10^-9 M, 7 days): ~70%; GAL4-RAR RARγ transactivation (Gal4-RARγ; 10^-7 M): 106%
C/C(=C/c1ccc2c(c1)C(C)(C)CCC2(C)C)c1ccc(C(=O)O)cn1 [CB38416, (Z) 2-[1-(5,6,7,8-tetrahydro-5,5,8,8-tetramethyl-2-naphthalenyl)-2-propenyl]pyridinyl-5-carboxylic acid]	55.8	98.3	122		induce a transactivation close to that of TTNPB	198	57	10	81	panagonistic	50 to 60	99	
CC1(C)CCC(C)(C)c2cc(/C=C(\c3ccc(C(=O)O)cc3)C(F)(F)F)ccc21 [CB36493, (E) 4-[1-trifluoromethyl-2-(5,6,7,8-tetrahydro-5,5,8,8-tetramethyl-2-naphthalenyl)-1-ethenyl]benzoic acid]	8.6	108	108		induce a transactivation close to that of TTNPB	205	34	0	97	panagonistic	68 to 78	50	
C/C(=C\c1cc2c(cc1C)C(C)(C)CCC2(C)C)c1ccc(C(=O)O)cc1 [CB71802]	7.8	96	101						76				inhibition at 1 µM (T-47D cells; Homo sapiens, T47D, 168 h, 1 μM (10^-6 M), 7 days, estradiol 10^-9 M, read-out: percentage inhibition of growth, T-47D): 72%; EC50 [2]: 31.4 ± 16.9 nM
CC1(C)CCC(C)(C)c2cc(/C=C(\c3ccc(-c4nnn[nH]4)cc3)C(F)(F)F)ccc21 [CB77402, (E) 5-[4-[1-trifluoromethyl-2-(5,6,7,8-tetrahydro-5,5,8,8-tetramethyl-2-naphthalenyl)-1-ethenyl]phenyl]-1H-tetrazole]	7.5	96.6	99.9		very feebly active	37	31	0	18	RXR specific activity		0	
Cc1cc2c(cc1C(=O)c1ccc(C(=O)O)cc1)C(C)(C)CCC2(C)C [LGD-CB14499, reference compound]						130	58	10				13	activity at 0.01 µM ([1]; ZR-75-1, 72 h): 107%; activity at 1 µM ([1]; ZR-75-1, 72 h): 104%; activity at 100 µM ([1]; ZR-75-1, 72 h): 42.4%; GAL4-RAR RARγ transactivation (Gal4-RARγ; 10^-7 M): 0%; GAL4-RAR RARγ transactivation (Gal4-RARγ; 10^-8 M): 0%
CC1=C(/C=C/C(C)=C/C=C/C(C)=C/C(=O)O)C(C)(C)CCC1 [CB16178, all-trans retinoic acid, reference compound]	7.3	57.2	46.9	inhibit the cellular increase of the two mammary lineages at the concentrations tested	induce a dose-dependent activation	475	270	128					RAR-ERcassette RARβ transactivation (RARβ-ERcassette; 10^-9 M): 93%
C/C(=C/c1ccc2c(c1)C(C)(C)CCC2(C)C)c1ccc(-c2nnn[nH]2)cc1 [CB92834]	18.7	39.9	27.9	strongly inhibitive activity on the cellular increase of the two lineages	very feebly active	43	36	0	21	RXR specific activity	94	2	effect on oestrogen-induced growth, T-47D (in words) (T-47D cells; estradiol 10^-9 M): inactive on the oestrogen-induced growth
